Results: ChEMBL document CHEMBL2010711, “Synthesis and comparative evaluation of 4-oxa- and 4-aza-podophyllotoxins as antiproliferative microtubule destabilizing agents” (Bioorg Med Chem Lett, 2012)
Calls of active or inactive are those of the source.

Assays:
SK-MEL-28 = assay: Cytotoxicity against human SK-MEL-28 cells after 48 hrs by trypan blue dye exclusion assay; format: functional; settings: SK-MEL-28, 48 h
CCRF-CEM = assay: Cytotoxicity against human CCRF-CEM cells after 48 hrs by trypan blue dye exclusion assay; format: functional
A498 = assay: Cytotoxicity against human A498 cells after 48 hrs by trypan blue dye exclusion assay; format: functional; settings: A498, 48 h
LOX IMVI = assay: Cytotoxicity against human LOXIMVI cells after 48 hrs by trypan blue dye exclusion assay; format: functional
HCC 2998 = assay: Cytotoxicity against human HCC2998 cells after 48 hrs by trypan blue dye exclusion assay; format: functional; settings: HCC 2998, 48 h
MCF7 = assay: Cytotoxicity against human MCF7 cells after 48 hrs by trypan blue dye exclusion assay; format: functional; settings: MCF7, 48 h
COLO 205 = assay: Cytotoxicity against human COLO205 cells after 48 hrs by trypan blue dye exclusion assay; format: functional; settings: COLO 205, 48 h
SW-620 = assay: Cytotoxicity against human SW620 cells after 48 hrs by trypan blue dye exclusion assay; format: functional; settings: SW-620, 48 h
SNB-19 = assay: Cytotoxicity against human SNB19 cells after 48 hrs by trypan blue dye exclusion assay; format: functional; settings: SNB-19, 48 h
NCI-H23 = assay: Cytotoxicity against human NCI-H23 cells after 48 hrs by trypan blue dye exclusion assay; format: functional; settings: NCI-H23, 48 h
HCT-15 = assay: Cytotoxicity against human HCT15 cells after 48 hrs by trypan blue dye exclusion assay; format: functional; settings: HCT-15, 48 h
Paracentrotus lividus [1] = assay: Microtubule destabilizing activity in Paracentrotus lividus embryo assessed as embryo spinning at 2 fold less effective threshold concentration after 15 mins to 20 hrs; format: functional, organism-based
UACC-257 = assay: Cytotoxicity against human UACC257 cells after 48 hrs by trypan blue dye exclusion assay; format: functional; settings: UACC-257, 48 h
OVCAR-5 = assay: Cytotoxicity against human OVCAR5 cells after 48 hrs by trypan blue dye exclusion assay; format: functional; settings: OVCAR-5, 48 h
NCI/ADR-RES = assay: Cytotoxicity against human NCI/ADR-RES cells after 48 hrs by trypan blue dye exclusion assay; format: functional
OVCAR-4 = assay: Cytotoxicity against human OVCAR4 cells after 48 hrs by trypan blue dye exclusion assay; format: functional; settings: OVCAR-4, 48 h
BT-549 = assay: Cytotoxicity against human BT549 cells after 48 hrs by trypan blue dye exclusion assay; format: functional; settings: BT-549, 48 h
ACHN = assay: Cytotoxicity against human ACHN cells after 48 hrs by trypan blue dye exclusion assay; format: functional
RPMI-8226 = assay: Cytotoxicity against human RPMI8226 cells after 48 hrs by trypan blue dye exclusion assay; format: functional; settings: RPMI-8226, 48 h
U-251 = assay: Cytotoxicity against human U251 cells after 48 hrs by trypan blue dye exclusion assay; format: functional; settings: U-251, 48 h
SK-MEL-2 = assay: Cytotoxicity against human SK-MEL-2 cells after 48 hrs by trypan blue dye exclusion assay; format: functional; settings: SK-MEL-2, 48 h
HCT-116 = assay: Cytotoxicity against human HCT116 cells after 48 hrs by trypan blue dye exclusion assay; format: functional; settings: HCT-116, 48 h
SN12C = assay: Cytotoxicity against human SN12C cells after 48 hrs by trypan blue dye exclusion assay; format: functional
SF-295 = assay: Cytotoxicity against human SF295 cells after 48 hrs by trypan blue dye exclusion assay; format: functional; settings: SF-295, 48 h
HL-60(TB) = assay: Cytotoxicity against human HL-60(TB) cells after 48 hrs by trypan blue dye exclusion assay; format: functional; settings: HL-60, 48 h
SF-539 = assay: Cytotoxicity against human SF539 cells after 48 hrs by trypan blue dye exclusion assay; format: functional; settings: SF-539, 48 h
SR = assay: Cytotoxicity against human SR cells after 48 hrs by trypan blue dye exclusion assay; format: functional
UO-31 = assay: Cytotoxicity against human UO31 cells after 48 hrs by trypan blue dye exclusion assay; format: functional; settings: UO-31, 48 h
SK-OV-3 = assay: Cytotoxicity against human SKOV3 cells after 48 hrs by trypan blue dye exclusion assay; format: functional; settings: SK-OV-3, 48 h
Paracentrotus lividus [2] = assay: Antimitotic activity against Paracentrotus lividus embryo assessed as cleavage alteration at 2 fold less effective threshold concentration after 2.5 to 6 hrs; format: functional, organism-based
NCI-H522 = assay: Cytotoxicity against human NCI-H522 cells after 48 hrs by trypan blue dye exclusion assay; format: functional; settings: NCI-H522, 48 h
MOLT-4 = assay: Cytotoxicity against human MOLT4 cells after 48 hrs by trypan blue dye exclusion assay; format: functional; settings: MOLT-4, 48 h
MDA-MB-231 = assay: Cytotoxicity against human MDA-MB-231 cells after 48 hrs by trypan blue dye exclusion assay; format: functional; settings: MDA-MB-231, 48 h
A549 = assay: Cytotoxicity against human A549 cells after 48 hrs by trypan blue dye exclusion assay; format: functional; settings: A549, 48 h
PC-3 = assay: Cytotoxicity against human PC3 cells after 48 hrs by trypan blue dye exclusion assay; format: functional; settings: PC-3, 48 h
M14 = assay: Cytotoxicity against human M14 cells after 48 hrs by trypan blue dye exclusion assay; format: functional; settings: M14, 48 h
UACC-62 = assay: Cytotoxicity against human UACC62 cells after 48 hrs by trypan blue dye exclusion assay; format: functional; settings: UACC-62, 48 h
CAKI-1 = assay: Cytotoxicity against human CAKI-1 cells after 48 hrs by trypan blue dye exclusion assay; format: functional; settings: CAKI-1, 48 h
OVCAR-8 = assay: Cytotoxicity against human OVCAR8 cells after 48 hrs by trypan blue dye exclusion assay; format: functional; settings: OVCAR-8, 48 h
786-0 = assay: Cytotoxicity against human 786-0 cells after 48 hrs by trypan blue dye exclusion assay; format: functional; settings: 786-0, 48 h
Paracentrotus lividus [3] = assay: Antimitotic activity against Paracentrotus lividus embryo assessed as cleavage arrest at 2 fold less effective threshold concentration after 2.5 to 6 hrs; format: functional, organism-based
EKVX = assay: Cytotoxicity against human EKVX cells after 48 hrs by trypan blue dye exclusion assay; format: functional
NCI-H226 = assay: Cytotoxicity against human NCI-H226 cells after 48 hrs by trypan blue dye exclusion assay; format: functional; settings: NCI-H226, 48 h
KM12 = assay: Cytotoxicity against human KM12 cells after 48 hrs by trypan blue dye exclusion assay; format: functional; settings: KM12, 48 h
SF-268 = assay: Cytotoxicity against human SF268 cells after 48 hrs by trypan blue dye exclusion assay; format: functional; settings: SF-268, 48 h
IGROV-1 = assay: Cytotoxicity against human IGROV1 cells after 48 hrs by trypan blue dye exclusion assay; format: functional; settings: IGROV-1, 48 h
MDA-MB-468 = assay: Cytotoxicity against human MDA-MB-468 cells after 48 hrs by trypan blue dye exclusion assay; format: functional; settings: MDA-MB-468, 48 h
RXF 393 = assay: Cytotoxicity against human RXF393 cells after 48 hrs by trypan blue dye exclusion assay; format: functional; settings: RXF 393, 48 h
MDA-MB-435 = assay: Cytotoxicity against human MDA-MB-435 cells after 48 hrs by trypan blue dye exclusion assay; format: functional; settings: MDA-MB-435, 48 h
NCI-H322M = assay: Cytotoxicity against human NCI-H322M cells after 48 hrs by trypan blue dye exclusion assay; format: functional
DU-145 = assay: Cytotoxicity against human DU145 cells after 48 hrs by trypan blue dye exclusion assay; format: functional; settings: DU-145, 48 h
[4] = Cytotoxicity against human Hs 578T cells after 48 hrs by trypan blue dye exclusion assay; format: functional
HT-29 = assay: Cytotoxicity against human HT-29 cells after 48 hrs by trypan blue dye exclusion assay; format: functional; settings: HT-29, 48 h
SNB-75 = assay: Cytotoxicity against human SNB75 cells after 48 hrs by trypan blue dye exclusion assay; format: functional; settings: SNB-75, 48 h
TK-10 = assay: Cytotoxicity against human TK10 cells after 48 hrs by trypan blue dye exclusion assay; format: functional; settings: TK-10, 48 h
NCI-H460 = assay: Cytotoxicity against human NCI-H460 cells after 48 hrs by trypan blue dye exclusion assay; format: functional; settings: NCI-H460, 48 h
HOP-92 = assay: Cytotoxicity against human HOP92 cells after 48 hrs by trypan blue dye exclusion assay; format: functional; settings: HOP-92, 48 h
OVCAR-3 = assay: Cytotoxicity against human OVCAR3 cells after 48 hrs by trypan blue dye exclusion assay; format: functional; settings: OVCAR-3, 48 h
SK-MEL-5 = assay: Cytotoxicity against human SK-MEL-5 cells after 48 hrs by trypan blue dye exclusion assay; format: functional; settings: SK-MEL-5, 48 h
Paracentrotus lividus [5] = assay: Microtubule destabilizing activity in Paracentrotus lividus embryo assessed as concentration required to cause 100% embryo spinning after 15 mins to 20 hrs; format: functional
Paracentrotus lividus [6] = assay: Antimitotic activity against Paracentrotus lividus embryo assessed as concentration required to cause 100% cleavage alteration after 2.5 to 6 hrs; format: functional
Paracentrotus lividus [7] = assay: Antimitotic activity against Paracentrotus lividus embryo assessed as concentration required to cause 100% cleavage arrest after 2.5 to 6 hrs; format: functional

COc1cc(OC)cc(C2C3=C(COC3=O)Nc3cc(OC)ccc32)c1 (stereo not drawn)
GI50 (SK-MEL-28): < 10 nM
GI50 (CCRF-CEM): < 10 nM
GI50 (A498): < 10 nM
GI50 (LOX IMVI): < 10 nM
GI50 (HCC 2998): < 10 nM
GI50 (MCF7): < 10 nM
GI50 (COLO 205): < 10 nM
GI50 (SW-620): < 10 nM
GI50 (SNB-19): 27.8 nM
GI50 (NCI-H23): < 10 nM
GI50 (HCT-15): < 10 nM
Activity (Paracentrotus lividus [1]): inactive
GI50 (UACC-257): > 100000 nM
GI50 (OVCAR-5): 40.4 nM
GI50 (NCI/ADR-RES): < 10 nM
GI50 (OVCAR-4): < 10 nM
GI50 (BT-549): 13.8 nM
GI50 (ACHN): < 10 nM
GI50 (RPMI-8226): < 10 nM
GI50 (U-251): < 10 nM
GI50 (SK-MEL-2): 8160 nM
GI50 (HCT-116): < 10 nM
GI50 (SN12C): 16.1 nM
GI50 (SF-295): < 10 nM
GI50 (HL-60(TB)): < 10 nM
GI50 (SF-539): < 10 nM
GI50 (SR): < 10 nM
GI50 (UO-31): 48.8 nM
GI50 (SK-OV-3): < 10 nM
Activity (Paracentrotus lividus [2]): inactive
GI50 (NCI-H522): < 10 nM
GI50 (MOLT-4): < 10 nM
GI50 (MDA-MB-231): 16.5 nM
GI50 (A549): < 10 nM
GI50 (PC-3): < 10 nM
GI50 (M14): < 10 nM
GI50 (UACC-62): < 10 nM
GI50 (CAKI-1): < 10 nM
GI50 (OVCAR-8): 20.4 nM
GI50 (786-0): 20.3 nM
Activity (Paracentrotus lividus [3]): inactive
GI50 (EKVX): < 10 nM
GI50 (NCI-H226): 14400 nM
GI50 (KM12): < 10 nM
GI50 (SF-268): < 10 nM
GI50 (IGROV-1): < 10 nM
GI50 (MDA-MB-468): < 10 nM
GI50 (RXF 393): < 10 nM
GI50 (MDA-MB-435): < 10 nM
GI50 (NCI-H322M): < 10 nM
GI50 (DU-145): < 10 nM
GI50 [4]: < 10 nM
GI50 (HT-29): < 10 nM
GI50 (SNB-75): < 10 nM
GI50 (TK-10): 39700 nM
GI50 (NCI-H460): < 10 nM
GI50 (HOP-92): < 10 nM
GI50 (OVCAR-3): < 10 nM
GI50 (SK-MEL-5): < 10 nM

COc1cc2c(c(OC)c1OC)C(c1ccccc1)C1=C(COC1=O)O2 (stereo not drawn)
EC (Paracentrotus lividus [5]): >4000 nM
Activity (Paracentrotus lividus [1]): inactive
EC (Paracentrotus lividus [6]): 2000 nM
Activity (Paracentrotus lividus [2]): inactive
EC (Paracentrotus lividus [7]): >4000 nM
Activity (Paracentrotus lividus [3]): inactive

COc1ccc2c(c1)C(c1cc(OC)c3c(c1)OCO3)C1=C(COC1=O)O2 (stereo not drawn)
EC (Paracentrotus lividus [5]): 2000 nM
Activity (Paracentrotus lividus [1]): inactive
EC (Paracentrotus lividus [6]): 50 nM
Activity (Paracentrotus lividus [2]): inactive
EC (Paracentrotus lividus [7]): 200 nM
Activity (Paracentrotus lividus [3]): inactive

COc1ccc2c(c1)OC1=C(C(=O)OC1)C2c1cc(OC)c2c(c1OC)OCO2 (stereo not drawn)
EC (Paracentrotus lividus [5]): 4000 nM
Activity (Paracentrotus lividus [1]): inactive
EC (Paracentrotus lividus [6]): 100 nM
Activity (Paracentrotus lividus [2]): inactive
EC (Paracentrotus lividus [7]): 500 nM
Activity (Paracentrotus lividus [3]): inactive

COc1cc(OC)cc(C2C3=C(COC3=O)Oc3cc(OC)ccc32)c1 (stereo not drawn)
EC (Paracentrotus lividus [5]): 50 nM
Activity (Paracentrotus lividus [1]): inactive
EC (Paracentrotus lividus [6]): 1 nM
Activity (Paracentrotus lividus [2]): inactive
EC (Paracentrotus lividus [7]): 5 nM
Activity (Paracentrotus lividus [3]): inactive
